Reference: US20250333420A1, “FUSED BICYCLIC PYRIMIDONES AS WRN INHIBITORS” (INCYTE CORPORATION, priority 2023, published 2025)
Counter-ions that a name gives are not always drawn.

How the values were obtained:
WRN [1] = molecular target: T1, WRN (Homo sapiens, UniProt Q14191); experiment: WRN ATPase activity assay (ADP-Glo); type: biochemical; conditions: 1-hr pre-incubation with enzyme; 100 μM ATP, 25 nM forked dsDNA, 1 nM WRN; geometric mean of at least 2 replicates
T1 construct: A His-tagged construct of WRN (AA S2-S1235) was produced and used for the ATPase assay; His tag; made in house; host or cells: Sf9 insect cells (baculovirus, pFastBac1)
T1 sequence (Q14191 2-1235): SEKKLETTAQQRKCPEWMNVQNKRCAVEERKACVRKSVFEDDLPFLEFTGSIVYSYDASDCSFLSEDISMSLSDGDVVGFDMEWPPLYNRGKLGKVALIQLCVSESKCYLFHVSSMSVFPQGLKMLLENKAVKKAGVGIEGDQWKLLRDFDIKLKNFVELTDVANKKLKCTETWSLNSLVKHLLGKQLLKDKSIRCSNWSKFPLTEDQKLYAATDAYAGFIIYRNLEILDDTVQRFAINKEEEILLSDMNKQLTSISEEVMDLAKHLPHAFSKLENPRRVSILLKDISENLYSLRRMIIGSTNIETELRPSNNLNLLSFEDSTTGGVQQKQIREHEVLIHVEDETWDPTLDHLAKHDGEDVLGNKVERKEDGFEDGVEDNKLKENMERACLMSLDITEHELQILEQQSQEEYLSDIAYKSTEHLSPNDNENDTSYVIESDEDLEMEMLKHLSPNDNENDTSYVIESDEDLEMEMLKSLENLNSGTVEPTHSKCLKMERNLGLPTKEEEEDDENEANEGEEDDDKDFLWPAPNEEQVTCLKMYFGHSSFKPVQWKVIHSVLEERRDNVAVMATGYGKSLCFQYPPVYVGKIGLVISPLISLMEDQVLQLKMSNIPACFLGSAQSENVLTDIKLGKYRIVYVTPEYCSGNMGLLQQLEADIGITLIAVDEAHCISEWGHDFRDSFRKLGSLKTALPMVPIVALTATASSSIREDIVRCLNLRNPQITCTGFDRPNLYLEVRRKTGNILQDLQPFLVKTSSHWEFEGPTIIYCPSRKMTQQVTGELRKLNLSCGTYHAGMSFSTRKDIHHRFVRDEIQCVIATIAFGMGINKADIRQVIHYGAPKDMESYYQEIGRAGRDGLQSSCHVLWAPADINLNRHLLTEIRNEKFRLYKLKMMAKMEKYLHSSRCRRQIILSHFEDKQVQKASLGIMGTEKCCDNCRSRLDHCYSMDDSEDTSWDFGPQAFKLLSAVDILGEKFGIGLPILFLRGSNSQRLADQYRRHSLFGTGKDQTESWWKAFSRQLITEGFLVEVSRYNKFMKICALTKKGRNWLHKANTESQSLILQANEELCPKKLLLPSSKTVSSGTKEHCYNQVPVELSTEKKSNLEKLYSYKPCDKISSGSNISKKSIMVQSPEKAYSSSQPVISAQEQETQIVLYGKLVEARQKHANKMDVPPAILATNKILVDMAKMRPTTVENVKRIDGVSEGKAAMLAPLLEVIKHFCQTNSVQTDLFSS
Method: Compounds of the Examples were tested for WRN ATPase activity. WRN ATPase activity catalyzes ATP hydrolysis to produce ADP and phosphate. DNA encoding the target protein, 6×HIS-TEV-WRN-517-945, was produced, cloned and transfected as detailed in Example D. The amount of ADP produced was measured using ADP-Glo™ Kinase Assay kit from Promega Corporation in a Greiner white regular volume 384 wells assay plate (Greiner #781075). Data was normalized to a standard curve generated using various ADP concentrations and the corresponding luminescent signal intensities at each concentration. The assay conditions were optimized for enzyme concentration (WRN), substrate concentrations (ATP & dsDNA), and the linearity of the ATPase reaction, in the following assay buffer: 50 mM Tris-HCl, pH-7.5, 2 mM MgCl2, 50 mM NaCl, 1 mM EGTA, 0.01% P-20, 0.05% BSA, and 2 mM DTT prepared with nuclease free water.
A serial dilution (1:3 scheme) of the compounds were prepared in neat DMSO, with 100 nL of the compounds dispensed in the 384 wells assay plate. An 1-hr pre-incubation of the compounds with enzyme was included. A His-tagged construct of WRN (AA S2-S1235) was produced and used for the ATPase assay. Maximum inhibition control wells were set up with the addition of only assay buffer, and no inhibition control wells were set up with neat DMSO without test compounds. The reaction was initiated by addition of 5 μL substrate mix (200 μM ultrapure ATP, and 50 nM dsDNA prepared in assay buffer) and incubated at 25° C. for 35 min. A forked dsDNA oligomer substrate was prepared by annealing equal amounts of oligo GPat-1 ([BHQ2][…]) and oligo GPat-2 ([…][TAM]) and was used as dsDNA substrate for WRN ATPase assay. A typical ATPase reaction consists of 25 nM forked dsDNA, 100 μM ATP, and 1 nM WRN prepared in assay buffer. The WRN ATPase reaction was stopped by the addition of 5 μL of ADP-Glo Reagent from ADP-Glo™ Kinase Assay kit and incubated for 40 min to deplete the unreacted ATP. Afterwards, 5 μL of Kinase Detection Reagent from the ADP-Glo™ Kinase Assay kit was added and incubated for 1 hr for the development of luminescence signal.
Luminesce signals were measured on BMG PHERAstar FSX using luminescence protocol. Data analysis was carried out using Genedata software following % of control normalization. Fitting parameters include dose response IC50, Hill slope (n), maximum inhibition (S∞), and minimum inhibition (S0). The reported IC50 values for compounds in this invention are the geometric means of at least 2 independent replicates.

WRN [2] = molecular target: T1, WRN; experiment: WRN helicase activity assay (fluorescence DNA unwinding); type: biochemical; conditions: 1-hr pre-incubation with enzyme; 100 μM ATP, 25 nM forked dsDNA, 1 nM WRN; geometric mean of at least 2 replicates
Method: Compounds of the examples were tested for WRN helicase activity. DNA encoding the target protein, 6×HIS-TEV-WRN-517-945, was produced, cloned and transfected as detailed in Example D. To determine the inhibitory properties of the compounds, a 384 wells plate-based Helicase assay was set up to measure the extent of DNA unwinding (Helicase) activity of WRN. The WRN Helicase assay was designed to measure increase in fluorescence signal using a fluorescence based, donor-quencher paired forked dsDNA oligomer substrate (custom synthesis from Sigma-Aldrich) prepared by annealing equal amounts of oligo GPat-1 ([BHQ2][…]) and oligo GPat-2 ([…][TAM]). Continuous measurement of fluorescent signal was used to optimize the buffer conditions, concentration of enzyme (WRN), concentration of substrates (ATP & dsDNA), and the linearity of the Helicase reaction. All solutions were prepared in the following assay buffer: 50 mM Tris-HCl, pH-7.5, 2 mM MgCl2, 50 mM NaCl, 1 mM EGTA, 0.01% P-20, 0.05% BSA, and 2 mM DTT prepared with nuclease free water.
A serial dilution (1:3 scheme) of the compounds was prepared in neat DMSO and 100 nL of the compounds was dispensed in the Greiner black low volume (Greiner #784076) 384 wells assay plate. An 1-hr pre-incubation of the compounds with enzyme was included. A His-tagged construct of WRN (AA S2-S1235) was produced and used for the ATPase assay. Maximum inhibition control wells were set up with the addition of only assay buffer, and no inhibition control wells were set up with neat DMSO without test compounds. The reaction was initiated by addition of 5 μL substrate mix (200 μM ultrapure ATP, and 50 nM dsDNA prepared in assay buffer) and incubated at 25° C. for 35 min. A typical Helicase reaction consists of 25 nM forked dsDNA, 100 μM ATP, and 1 nM WRN prepared in assay buffer. The WRN Helicase reaction was quenched by the addition of 5 μL ‘STOP’ solution containing 100 mM EDTA (final EDTA concentration 33.33 mM) prepared in assay buffer. The plates were read on BMG PHERAstar FSX using 540/590 module to measure an increase of fluorescence. Data analysis was carried out using the Genedata software following % of control normalization. Fitting parameters include dose response IC50, Hill slope (n), maximum inhibition (S∞), and minimum inhibition (S0). The reported IC50 values for compounds in this invention are the geometric means of at least 2 independent replicates.

Row | IC50 (WRN [1]) | IC50 (WRN [2]) | SMILES
1 | < 100 nM | < 100 nM | C=CC(=O)Nc1cc(C(=O)NCC)ccc1-n1c(CC)nc2c(c(C)c(C)n2CC(=O)Nc2ccc(C(F)(F)F)cc2)c1=O [Example 6, 3-Acrylamido-N-ethyl-4-(2-ethyl-5,6-dimethyl-4-oxo-7-(2-oxo-2-((4-(trifluoromethyl)phenyl)amino)ethyl)-4,7-dihydro-3H-pyrrolo[2,3-d]pyrimidin-3-yl)benzamide, trifluoroacetate salt]
2 | < 100 nM | < 100 nM | C=CC(=O)Nc1ccccc1-n1c(CC)nc2c(c(C)c(C)n2CC(=O)Nc2ccc(F)cc2)c1=O [Example 5, N-(2-(2-Ethyl-7-(2-((4-fluorophenyl)amino)-2-oxoethyl)-5,6-dimethyl-4-oxo-4,7-dihydro-3H-pyrrolo[2,3-d]pyrimidin-3-yl)phenyl)acrylamide]
3 | 1000 to 5000 nM | 1000 to 5000 nM | C=CC(=O)Nc1ccccc1-n1c(CC)nc2c(cnn2CC(=O)Nc2ccc(C(F)(F)F)cc2)c1=O [Example 1, N-(2-(6-Ethyl-4-oxo-1-(2-oxo-2-((4-(trifluoromethyl)phenyl)amino)ethyl)-1,4-dihydro-5H-pyrazolo[3,4-d]pyrimidin-5-yl)phenyl)acrylamide]
4 | < 100 nM | < 100 nM | C=CS(=O)(=O)Nc1ccccc1-n1c(CC)nc2c(cnn2CC(=O)Nc2ccc(C(F)(F)F)cc2)c1=O [Example 2, 2-(6-Ethyl-4-oxo-5-(2-(vinylsulfonamido)phenyl)-4,5-dihydro-1H-pyrazolo[3,4-d]pyrimidin-1-yl)-N-(4-(trifluoromethyl)phenyl)acetamide]
5 | < 100 nM | < 100 nM | C=CC(=O)Nc1ccccc1-n1c(CC)nc2c(c(C)c(C)n2CC(=O)Nc2ccc(C(F)(F)F)cc2Cl)c1=O [Example 4, N-(2-(7-(2-((2-Chloro-4-(trifluoromethyl)phenyl)amino)-2-oxoethyl)-2-ethyl-5,6-dimethyl-4-oxo-4,7-dihydro-3H-pyrrolo[2,3-d]pyrimidin-3-yl)phenyl)acrylamide]
6 | < 100 nM | < 100 nM | C=CC(=O)Nc1ccccc1-n1c(CC)nc2c(c(C)c(C)n2CC(=O)Nc2ccc(C(F)(F)F)cc2)c1=O [Example 3, N-(2-(2-Ethyl-5,6-dimethyl-4-oxo-7-(2-oxo-2-((4-(trifluoromethyl)phenyl)amino)ethyl)-4,7-dihydro-3H-pyrrolo[2,3-d]pyrimidin-3-yl)phenyl)acrylamide]
7 | < 100 nM | < 100 nM | C=CC(=O)Nc1cc(C(=O)NCC)ccc1-n1c(CC)nc2c(c(C)c(C)n2CC(=O)Nc2ccc(F)cc2)c1=O [Example 7, 3-Acrylamido-N-ethyl-4-(2-ethyl-7-(2-((4-fluorophenyl)amino)-2-oxoethyl)-5,6-dimethyl-4-oxo-4,7-dihydro-3H-pyrrolo[2,3-d]pyrimidin-3-yl)benzamide, trifluoroacetate salt]
